According to patent publication US4141988A, “2,9-Dioxatricyclo[4,3,1,0^3,7 ]decane derivatives, processes for their preparation and pharmaceutical compositions thereof” (Kali-Chemie Pharma GmbH, priority 1977, dated 1979):

Key:
[1] = acute toxicity; type: in vivo; settings: compared with propoxyphene or profadol
[2] = system: rhesus monkey; test: self-administration test (addiction) in the rhesus monkey; type: in vivo; settings: contrary to morphine
Protocol: test substance No. 32-527 < 5,6 mg/kg and morphine 3,6 mg/kg.

[3] = system: rhesus monkey; test: step-irritation test in the rhesus monkey; type: in vivo
[4] = system: bradykinin induced pain; test: bradykinin induced pain test in rats (s.c.); type: in vivo, rat
Protocol: For example, the MED of both, the test substance 32-527 and morphine, is 0,56 mg/kg in the so-called step-irritation test in the rhesus monkey upon s.c. administration. Upon s.c. administration, the ED50 of the two substances for inhibiting the bradykinin induced pain in rats are as follows: […]

[5] = system: mice, rats and rhesus monkeys; test: analgesic activity in mice, rats and rhesus monkeys; type: in vivo
[6] = inhibition of intestinal motility in mice; settings: mouse, in vivo, po, read-out: intestinal motility inhibiting ED50

Row | Compound | acute toxicity [1] | addiction syndroms in the self-administration test [2] | MED ([3]; step-irritation test, rhesus monkey, s.c.) | ED50 for inhibiting the bradykinin induced pain [4] | analgesic activity compared with morphine ([5]; enteral and parenteral) | analgesic activity ([5]; enteral and parenteral administration) | minimal effective dose ([3]; Macaca mulatta, sc, read-out: MED) [mg/kg] | ED50 [6] [mg/kg]
1 | COC1OC2OC3(C)C(NCCc4ccccc4Cl)CC(C2C)C13.Cl (stereo not drawn) [test substance No. 32-527, 4 α-(o-chlorophenethylamino)-3,10-dimethyl-8-methoxy-2,9-dioxatricyclo[4,3,1,0^3,7]decane hydrochloride] | similarly low toxicity as that of propoxyphene or profadol | practically no addiction syndroms are observed | 0,56 mg/kg | < 5,6 mg/kg | of about the same order as that of morphine | exhibits analgesic activities | – | –
2 | CN1CC[C@]23c4c5ccc(O)c4O[C@H]2[C@@H](O)C=C[C@H]3[C@H]1C5 [morphine, reference compound] | – | – | – | 3,6 mg/kg | – | – | 0.56 | 39
